In ChEMBL document CHEMBL1201862, “PubChem BioAssay data set” (2004):
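48-hour exposure; five concentrations; linearly interpolated endpoints. At the GI50, growth is halved.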 Calls of active or inactive are those of the source. No stated cut-off is given here; in the data, active = GI50 up to about 1.1 µM and inactive = higher.

Tests used:
Test in all cases: growth of human tumour cells (NCI), 48 h
EKVX = tested on: EKVX
SK-OV-3 = tested on: SK-OV-3
SK-MEL-2 = tested on: SK-MEL-2
NCI-H522 = tested on: NCI-H522
HT-29 = tested on: HT-29
SN12C = tested on: SN12C
HCT-15 = tested on: HCT-15
NCI-H23 = tested on: NCI-H23
KM12 = tested on: KM12
PC-3 = tested on: PC-3
SF-295 = tested on: SF-295
SK-MEL-28 = tested on: SK-MEL-28
HOP-92 = tested on: HOP-92
OVCAR-8 = tested on: OVCAR-8
COLO 205 = tested on: COLO 205
IGROV-1 = tested on: IGROV-1
T47D = tested on: T47D
CCRF-CEM = tested on: CCRF-CEM
MOLT-4 = tested on: MOLT-4

| SMILES | GI50 (EKVX) | GI50 (SK-OV-3) | GI50 (SK-MEL-2) | GI50 (NCI-H522) | GI50 (HT-29) | GI50 (SN12C) | GI50 (HCT-15) [µM] | GI50 (NCI-H23) | GI50 (KM12) | GI50 (PC-3) | GI50 (SF-295) | GI50 (SK-MEL-28) | GI50 (HOP-92) | GI50 (OVCAR-8) | GI50 (COLO 205) | GI50 (IGROV-1) | GI50 (T47D) | GI50 (CCRF-CEM) | GI50 (MOLT-4) |
| --- | --- | --- | --- | --- | --- | --- | --- | --- | --- | --- | --- | --- | --- | --- | --- | --- | --- | --- | --- |
| COC(=O)c1ccc(NCc2cc(O)ccc2O)cc1O | 13.5 µM (inactive) | 13.9 µM (inactive) | 16.4 µM (inactive) | 0.405 µM (active) | 17.2 µM (inactive) | 8.38 µM (inactive) | 11.9 | 9.46 µM (inactive) | 3.28 µM (inactive) | 4.89 µM (inactive) | 12.9 µM (inactive) | 16.4 µM (inactive) | 11.2 µM (inactive) | 3.29 µM (inactive) | 16.7 µM (inactive) | 8.97 µM (inactive) | 3.4 µM (inactive) | 0.877 µM (active) | 2.09 µM (inactive) |
| Cn1c2c(c3c(=O)[nH]ncc31)CCCc1ccccc1-2 | 11.8 µM (inactive) | 25.7 µM (inactive) | 20.8 µM (inactive) | 18.2 µM (inactive) | 28.4 µM (inactive) | 25.6 µM (inactive) | 29.8 | 37.7 µM (inactive) | 37.3 µM (inactive) | 26.1 µM (inactive) | 32.5 µM (inactive) |  | 12.9 µM (inactive) | 24.9 µM (inactive) | 17.9 µM (inactive) | 24.5 µM (inactive) | 38.9 µM (inactive) | 34.5 µM (inactive) | 0.0891 µM (active) |
| CC1(C)C2CC3C4CC5(Nc6ccccc6C5N41)[C@]3(C)CC2=O (some centres undefined) | > 50 µM (inactive) |  | > 50 µM (inactive) | > 50 µM (inactive) | > 50 µM (inactive) | > 50 µM (inactive) | > 50 | > 50 µM (inactive) | > 50 µM (inactive) | > 50 µM (inactive) | > 50 µM (inactive) | > 50 µM (inactive) | 12.5 µM (inactive) | > 50 µM (inactive) | > 50 µM (inactive) | > 50 µM (inactive) | 9.82 µM (inactive) | > 50 µM (inactive) | > 50 µM (inactive) |
| Cc1ccc(/C(Cl)=C/C=C(C#N)C#N)cc1 | 10.1 µM (inactive) | 5.78 µM (inactive) | 6.32 µM (inactive) | 1.98 µM (inactive) | 2.59 µM (inactive) | 3.72 µM (inactive) | 2.1 | 1.76 µM (inactive) | 5.22 µM (inactive) | 4.01 µM (inactive) | 13.3 µM (inactive) | 2.14 µM (inactive) | 3.26 µM (inactive) | 3.16 µM (inactive) | 3.31 µM (inactive) | 3.59 µM (inactive) | 4.23 µM (inactive) | 0.441 µM (active) | 0.65 µM (active) |
| N#Cc1cc(N(CCCl)CCCl)c([N+](=O)[O-])cc1[N+](=O)[O-] | > 100 µM (inactive) | > 100 µM (inactive) | > 100 µM (inactive) | 87.9 µM (inactive) | > 100 µM (inactive) | 48 µM (inactive) | > 100 | > 100 µM (inactive) | > 100 µM (inactive) | > 100 µM (inactive) | > 100 µM (inactive) | > 100 µM (inactive) | > 100 µM (inactive) | > 100 µM (inactive) | > 100 µM (inactive) | > 100 µM (inactive) | 11.4 µM (inactive) | 19.2 µM (inactive) | 24 µM (inactive) |
| COC(=O)/C=C/c1ccc2c(c1)CCC2 | 82.6 µM (inactive) | > 100 µM (inactive) | 48 µM (inactive) | 22.1 µM (inactive) | 26.8 µM (inactive) |  | 17.3 | 37.2 µM (inactive) |  | 30.4 µM (inactive) | 56 µM (inactive) | > 100 µM (inactive) | 5.28 µM (inactive) | 53.5 µM (inactive) |  | 36.5 µM (inactive) | 11.3 µM (inactive) | 46.9 µM (inactive) | 41.9 µM (inactive) |
| Oc1ccc2oc3c(O)c4ccccc4cc3c2c1 |  | 16.2 µM (inactive) | 7.91 µM (inactive) | 1.01 µM (active) | 17.5 µM (inactive) | 2.36 µM (inactive) | 1.98 | 10.6 µM (inactive) | 2.22 µM (inactive) | 4.06 µM (inactive) |  | 7.24 µM (inactive) | 10.7 µM (inactive) | 4.56 µM (inactive) | 10.6 µM (inactive) | 0.851 µM (active) | 20.3 µM (inactive) | 1.5 µM (inactive) | 1.07 µM (active) |
| CC1=C(C)CC2(C=C(C(C)(C)C)C(=O)C(C(C)(C)C)=C2)SC1 | 18.6 µM (inactive) | 25 µM (inactive) | 12.3 µM (inactive) | 1.91 µM (inactive) | 19.9 µM (inactive) | 17.4 µM (inactive) |  | 18.5 µM (inactive) | 19.1 µM (inactive) | 26.7 µM (inactive) | 16 µM (inactive) |  | 19.2 µM (inactive) |  | 17.6 µM (inactive) | 13.9 µM (inactive) | 27.9 µM (inactive) | 19.8 µM (inactive) | 27.4 µM (inactive) |
| C[C@@H](C(=O)O)N1C(c2ccco2)=C(/C(C=O)=C\c2ccco2)C(=O)/C1=C\c1ccco1 | > 100 µM (inactive) |  | > 100 µM (inactive) | > 100 µM (inactive) | > 100 µM (inactive) | > 100 µM (inactive) | > 100 | > 100 µM (inactive) | > 100 µM (inactive) | > 100 µM (inactive) | > 100 µM (inactive) | > 100 µM (inactive) | > 100 µM (inactive) | > 100 µM (inactive) | > 100 µM (inactive) | > 100 µM (inactive) | > 100 µM (inactive) | > 100 µM (inactive) | > 100 µM (inactive) |
| CCCCSC1=N/C(=C\c2ccc(N(C)C)cc2)C(=O)N1 | 19.1 µM (inactive) | 41.2 µM (inactive) |  | 21.7 µM (inactive) | 11.9 µM (inactive) | 16.3 µM (inactive) | 53.5 | 67.9 µM (inactive) | 18 µM (inactive) | 0.256 µM (active) | 28.4 µM (inactive) | 61.9 µM (inactive) | 27.3 µM (inactive) | 54.1 µM (inactive) | 35.5 µM (inactive) | 35.3 µM (inactive) | 18.7 µM (inactive) | > 100 µM (inactive) | 57.5 µM (inactive) |
| Cc1ccc2c(C(=O)c3c(C)n(CCN4CCOCC4)c4ccccc34)cccc2c1 | 20.5 µM (inactive) | 12.8 µM (inactive) | 17.4 µM (inactive) | 10.6 µM (inactive) | 11.2 µM (inactive) | 31.3 µM (inactive) | 9.35 | 14.8 µM (inactive) | 16.3 µM (inactive) | 11.9 µM (inactive) | 7.45 µM (inactive) | 1.36 µM (inactive) | 19.1 µM (inactive) | 10.8 µM (inactive) |  | 19.3 µM (inactive) | 17.2 µM (inactive) | 1.79 µM (inactive) | 3.88 µM (inactive) |
| CC(C)(C)C(=O)C(C(c1ccccc1)N1CCOCC1)N1CCOCC1 (centres undefined) | > 100 µM (inactive) |  | > 100 µM (inactive) | > 100 µM (inactive) | > 100 µM (inactive) | > 100 µM (inactive) | > 100 | > 100 µM (inactive) | > 100 µM (inactive) | > 100 µM (inactive) | > 100 µM (inactive) | > 100 µM (inactive) | > 100 µM (inactive) | > 100 µM (inactive) |  | > 100 µM (inactive) | > 100 µM (inactive) | > 100 µM (inactive) | > 100 µM (inactive) |
| COC(=O)c1cccc2c1Oc1ccccc1S2 | 39.4 µM (inactive) | > 100 µM (inactive) | > 100 µM (inactive) | 27.1 µM (inactive) | 25.9 µM (inactive) | 56.6 µM (inactive) | 46.1 |  | 12 µM (inactive) | 63.2 µM (inactive) | 60.8 µM (inactive) | 96.8 µM (inactive) | 25.8 µM (inactive) | 74.3 µM (inactive) | 19.6 µM (inactive) | 56.2 µM (inactive) | 32.3 µM (inactive) | 23.4 µM (inactive) | 24.5 µM (inactive) |
| COc1ccc(-c2nc(-c3cnccn3)n(COCCO)n2)cc1 |  | > 100 µM (inactive) |  | > 100 µM (inactive) | > 100 µM (inactive) | > 100 µM (inactive) | > 100 | > 100 µM (inactive) | > 100 µM (inactive) | > 100 µM (inactive) | > 100 µM (inactive) | > 100 µM (inactive) | > 100 µM (inactive) | > 100 µM (inactive) | > 100 µM (inactive) | > 100 µM (inactive) | > 100 µM (inactive) | > 100 µM (inactive) | > 100 µM (inactive) |
| CCOP(=O)(C/C=C/Cn1nc(Br)c(=O)[nH]c1=O)OCC | > 100 µM (inactive) |  | > 100 µM (inactive) | > 100 µM (inactive) | > 100 µM (inactive) | > 100 µM (inactive) | > 100 | > 100 µM (inactive) | > 100 µM (inactive) | > 100 µM (inactive) | > 100 µM (inactive) | > 100 µM (inactive) | > 100 µM (inactive) | > 100 µM (inactive) | > 100 µM (inactive) | > 100 µM (inactive) | > 100 µM (inactive) | > 100 µM (inactive) | > 100 µM (inactive) |
| Nc1n[n+]2cc(-c3ccccc3)n(CC(=O)c3ccccc3)c2s1 | 39.6 µM (inactive) | > 100 µM (inactive) | 15.5 µM (inactive) | 13.3 µM (inactive) | 27.2 µM (inactive) | 42.6 µM (inactive) | 44.7 | 20.6 µM (inactive) | 19.8 µM (inactive) | 39 µM (inactive) | > 100 µM (inactive) |  | 14.1 µM (inactive) | 52 µM (inactive) | 15.3 µM (inactive) | 70.8 µM (inactive) | 22.6 µM (inactive) | 15.8 µM (inactive) | 20.9 µM (inactive) |
